Laboratory results published in US20100035756A1, “TRIAZOLOPHYRIDINE DERIVATIVES AS HERBICIDES” (SYNGENTA LIMITED, priority 2006, published 2010).

Experiments:
[1] = tested on: Monocotyledonous and dicotyledonous test plants; assay: Herbicidal action prior to emergence of the plants (pre-emergence action), Example B1; type: in vivo; conditions: preemergence application, 250 g/ha, evaluated after 4 weeks, 100%=total damage, 0%=no damage
Description: (§1) Monocotyledonous and dicotyledonous test plants are sown in seed trays in standard soil. Immediately after sowing, the test compounds are applied by spraying in the form of an aqueous suspension (prepared from a wettable powder (Example F3, b) according to WO 97/34485) or in the form of an emulsion (prepared from an emulsifiable concentrate (Example F1, c) according to WO 97/34485) in a concentration of 250 g/ha. The test plants are then grown in a greenhouse under optimum conditions. After a 4-week test period, the test is evaluated (100%=total damage to plant; 0%=no damage to plant; NC not evaluated).

[2] = tested on: Monocotyledonous and dicotyledonous test plants; assay: Herbicidal action after emergence of the plants (post-emergence herbicidal action), Example B2; type: in vivo; conditions: postemergent application, 125 g/ha, 2- to 3-leaf stage, evaluated after 2-3 weeks, 100%=total damage
Description: as §1, with “When the test plants are at the 2- to 3-leaf stage,” for “Immediately after sowing,”, “125” for “250”, “grown on” for “grown”, “2- to 3-week” for “4-week”, “plant).” for “plant; NC not evaluated).”

Row | SMILES | herbicidal damage, ABUTH [1] | herbicidal damage, AMARE [1] | herbicidal damage, BRAPL [1] | herbicidal damage, DIGSA [1] | herbicidal damage, ECHCG [1] | herbicidal damage, SETFA [1] | herbicidal damage, VERPE [1] | herbicidal damage, ABUTH [2] | herbicidal damage, AMARE [2] | herbicidal damage, CHEAL [2] | herbicidal damage, DIGSA [2] | herbicidal damage, SETFA [2] | herbicidal damage, SINAR [2] | herbicidal damage, VERPE [2] | herbicidal damage, XANST [2] | herbicidal damage, STEME [1]
1 | O=C(C1=C(O)C2CCC(C2)C1=O)c1ccc(C(F)(F)F)n2c(Cl)nnc12 (centres unmarked) [Compound 1.2] | 100% | 100% | 100% | 100% | 100% | 90% | 70% | 90% | 80% | 80% | 90% | 90% | 70% | 70% | 80% | –
2 | CC(C)c1nnc2c(C(=O)C3=C(O)C4CCC(C4)C3=O)ccc(C(F)(F)F)n12 (centres unmarked) [Compound 1.7] | 100% | 100% | 80% | 100% | 80% | 80% | 100% | 90% | 90% | 80% | 80% | 70% | 80% | 90% | 80% | 100%
3 | COCc1nnc2c(C(=O)C3=C(O)C4CCC(C4)C3=O)ccc(C(F)(F)F)n12 (centres unmarked) [Compound 1.16] | 100% | 100% | 70% | 80% | 100% | 80% | 50% | 80% | 90% | 80% | 70% | 70% | 80% | 80% | 80% | 100%
4 | Cc1nnc2c(C(=O)C3=C(O)C4CCC(C4)C3=O)ccc(C(F)F)n12 (centres unmarked) [Compound 1.54] | 20% | 10% | 40% | 0% | 0% | 0% | 20% | 70% | 80% | 70% | 60% | 50% | 60% | 60% | 70% | 0%
5 | CCOc1nnc2c(C(=O)C3=C(O)C4CCC(C4)C3=O)ccc(C(F)(F)F)n12 (centres unmarked) [Compound 1.211] | 30% | 100% | 100% | 70% | 70% | 30% | 90% | 70% | 100% | 80% | 70% | 80% | 80% | 80% | 80% | 80%
6 | CCSc1nnc2c(C(=O)C3=C(O)C4CCC(C4)C3=O)ccc(C(F)(F)F)n12 (centres unmarked) [Compound 1.212] | 70% | 100% | 60% | 70% | 50% | 80% | 0% | 80% | 80% | 80% | 80% | 80% | 80% | 80% | 80% | 70%
